According to patent US20230074545A1, “TREATMENT OF CANCER WITH CDK12/13 INHIBITORS” (Kinnate Biopharma Inc., priority 2019, published 2023):

Assays:
RNA polymerase II = experiment: Inhibition of phosphorylation of RNA polymerase II in NCI-H82 cells; format: cell-based; conditions: Homo sapiens, 2 hours, phosphorylated/total RNA polymerase II
Method: CDK12 and CDK13 phosphorylate RNA polymerase II. The ability of compound 1 to inhibit phosphorylation of RNA polymerase II was analyzed in NCI-H82 cells. 200,000 cells were plated in each well of a 96 well MSD plate. Cells were treated with compound 1, THZ531 (a positive control), or E9 at concentrations between 4 μM to 126.4 pM (0.5 log serial dilutions) for 2 hours. THZ531 and E9 are further discussed in Gao et al, Cell Chemical Biology 2017. The amount of phosphorylated RNA polymerase II and the total amount of RNA polymerase II was analyzed using antibodies. The values were normalized by taking the ratio of the phosphorylated RNA polymerase II to the total RNA polymerase II. As depicted in FIG. 3A (THZ531), FIG. 3B (Compound 1), and Table 6, increasing the concentration of compound 1 results in a dose-specific increase in the inhibition of phosphorylation of RNA polymerase II.

OVCAR-3 tumors = experiment: OVCAR-3 mouse xenograft model of ovarian cancer; format: in vivo, NOD SCID female mice
Source text: To test the efficacy of the compounds in vivo, studies were done in mouse xenografts. For all studies, general procedures for animal care and housing were done in accordance with the standard, Commission on Life Sciences, National Research Council, Standard operating procedures (SOPs) of Pharmaron, Inc (Beijing, China). The mice were kept in laminar flow rooms at constant temperature and humidity with 3-5 mice in each cage with bedding changed once weekly. Animals were housed in polycarbonate cage which is in the size of 300×180×150 mm^3 and in an environmentally monitored, well-ventilated room maintained at a temperature of (22±3° C.) and a relative humidity of 40%-70% on a 12:12 light:dark cycle with full spectrum lighting. Each animal was assigned an identification number; the following identification method will be applied. Cage cards were labeled with such information as study number, group, sex, dose, animal number, initiation date, study director and telephone number. Animals were identified by ear coding. Animals had free access to irradiation sterilized dry granule food during the entire study period except for time periods specified by the protocol.
For the OVCAR-3 study, NOD SCID female mice bearing the OVCAR-3 tumors were randomized into 5 groups (n=9 mice per group) 17 day post tumor implantation with an average tumor volume of 150 mm^3. Each group received either vehicle (3% DMSO, 97.0% (20% HP-β-CD in water) or 5.0, 10, 20 and 25.0 mg/kg of compound 4 biweekly (Monday, Thursday), a total of 4 doses were intravenously administered through the course of 14 day efficacy study. Immediately after every treatment dose, a saline flush of 0.1 mL were also administered. One last dose was intravenously administered on Day 15 for end of study PK plasma and PD tumor collections as indicated in the protocol. Tumor volumes were measured by caliper 2 times a week and body weights of all animals were recorded throughout the study.
Protocol-required measurements and observations were recorded manually onto excel spread sheets. All statistical tests were conducted, and the level of significance was set at 5% or P<0.05. The group means, standard deviation was calculated for all measurement parameters as study designed. Two-way RM ANOVA followed by Tukeys post hoc comparisons of the means was utilized for this study.

non-CDK12/13 kinases = experiment: Radiometric kinase panel, summary; format: biochemical, human; conditions: 1 μM
Method: The compounds 1-5 (see Table 1) were assayed for kinase activity at ProQinase (ProQinase GmbH, Reaction Biology; Freiburg, Germany) using their commercially available radiometric kinase assay services. Briefly, the compounds were provided as solids and were dissolved to 1×10^−03 M/100% DMSO stock solutions on the day of assay. All protein kinases were provided by ProQinase and were expressed in Sf9 insect cells or in E. coli as recombinant GST-fusion proteins or His-tagged proteins, either as full-length or enzymatically active fragments. All kinases were produced from human cDNAs and purified by either GSH-affinity chromatography or immobilized metal. The purity of the protein kinases was examined by SDS-PAGE/Coomassie staining, the identity was checked by mass spectroscopy. A radiometric protein kinase assay (^33PanQinase® Activity Assay) was used for measuring the kinase activity of the protein kinase. All kinase assays were performed in 96-well FlashPlates™ from PerkinElmer (Boston, Mass., USA) in a 50 microliter reaction volume. […]
Compound 4 was analyzed for selectivity against a panel of other kinases at ProQinase using their commercially available radiometric kinase assay services and the methods described in Example 1.

| SMILES | IC50 (RNA polymerase II) | T/C (OVCAR-3 tumors; 5.0 mg/kg intravenously biweekly for 14 days, compared to vehicle control) | T/C (OVCAR-3 tumors; 10 mg/kg intravenously biweekly for 14 days, compared to vehicle control) | T/C (OVCAR-3 tumors; 20 mg/kg intravenously biweekly for 14 days) | T/C (OVCAR-3 tumors; 25 mg/kg intravenously biweekly for 14 days) | average percent of inhibition against non-CDK12/13 kinases (non-CDK12/13 kinases) |
| --- | --- | --- | --- | --- | --- | --- |
| C=CC(=O)Nc1ccc(C(=O)N2CC[C@@H](Nc3ncc(Cl)c(OC)n3)C2)cc1 [Compound 1, (R)-N-(4-(3-((5-chloro-4-methoxypyrimidin-2-yl)amino)pyrrolidine-1-carbonyl)phenyl)acrylamide] | 12.5 nM |  |  |  |  |  |
| C=CC(=O)Nc1ccc(C(=O)N2CC[C@@H](Nc3ncc(C#N)cn3)C2)cc1 [Compound 4, (R)-N-(4-(3-((5-cyanopyrimidin-2-yl)amino)pyrrolidine-1-carbonyl)phenyl)acrylamide] |  | 36% | 13% | −7% | −9% | low average percent of inhibition |
